Measurements as given in paper PMC11762413 (2025).

Columns and labels:
[1] = test system: VAN-specific aptamer (Apt), 4trunc, immobilised on gold (DNA, aptamer) CGAGGGTACCGCAATAGTACTTATTGTTCGCCTATTGTGGGTCGG; assay: EIS aptasensor selectivity; settings: 100 mM Na+, 100 mM K+, 10 mM Mg2+, 10 mM TRIS pH 7.4, room temperature, 45 min, tested at 1 µM
[2] = test system: VAN-specific aptamer (Apt), 4trunc, immobilised on gold (DNA, aptamer) CGAGGGTACCGCAATAGTACTTATTGTTCGCCTATTGTGGGTCGG; assay: SPR kinetics (koff/kon); settings: 100 mM Na+, 100 mM K+, 10 mM Mg2+; 10 mM TRIS pH 7.4; aptamer immobilised on gold chip; VAN 0.05–10 µM; 1:1 model
[3] = test system: VAN-specific aptamer (Apt), 4trunc, in solution (DNA, aptamer) CGAGGGTACCGCAATAGTACTTATTGTTCGCCTATTGTGGGTCGG; assay: ITC; settings: 100 mM Na+, 100 mM K+, 10 mM Mg2+; 10 mM TRIS pH 7.4, 25 °C; 10 µM aptamer titrated with 150 µM VAN; independent sites

For `OC[C@H]1O[C@@H](O[C@H]2[C@H](O)[C@@H](O)C(O)O[C@@H]2CO)[C@H](O)[C@@H](O)[C@H]1O` (stereo partly shown), the binding ([1]; 9.78% of VAN signal) was “no”.
`OC[C@H]1OC(O)[C@H](O)[C@@H](O)[C@@H]1O` (stereo partly shown) was tested, and the binding ([1]; 10.65% of VAN signal) was “no”.
`CN[C@H](CC(C)C)C(=O)N[C@H]1C(=O)N[C@@H](CC(N)=O)C(=O)N[C@H]2C(=O)N[C@H]3C(=O)N[C@H](C(=O)N[C@H](C(=O)O)c4cc(O)cc(O)c4-c4cc3ccc4O)[C@H](O)c3ccc(c(Cl)c3)Oc3cc2cc(c3O[C@@H]2O[C@H](CO)[C@@H](O)[C@H](O)[C@H]2O[C@H]2C[C@](C)(N)[C@H](O)[C@H](C)O2)Oc2ccc(cc2Cl)[C@H]1O` gave a KD [2] of 18.31 ± 1.15 µM and a KD [3] of 13.35 ± 2.74 µM.
